{"source": "patent US20250041299A1", "about": "“THERAPEUTIC TARGETING OF GASTROINTESTINAL STROMAL TUMOR (GIST) BY DISRUPTING THE MENIN-MLL EPIGENETIC COMPLEX” (DANA-FARBER CANCER INSTITUTE, INC., priority 2021, published 2025)", "key": {"GIST-T1 cells [1]": {"test_system": "GIST-T1 cells", "experiment": "RNA-seq and GSEA of drug-treated GIST-T1 cells", "assay_type": "cell-based, human", "protocol": "(§1) RNA-seq. Total RNA was isolated using a RNeasy Plus Kit (Qiagen Cat #74136), and concentration measured by Nanodrop (Thermo Fisher Scientific) and quality by TapeStation 4200 (Agilent). Library preparation was performed using the NEBNext Ultra II DNA Library Prep Kit (New England Biolabs Cat #E7645S). Paired-end 150 bp sequencing was performed on a NovaSeq 6000 (Illumina). RNA-seq data were aligned to hg19 using STAR (Dobin et al., Bioinformatics 29:15-21 (2012)) with expression quantification using Cufflinks (Trapnell et al., Nat. Biotechnol. 28:511-5 (2010)) to generate gene expression values in fragments per kilobase of transcript per million mapped reads (FPKM) units. Gene set enrichment analysis (GSEA, RRID: SCR_003199) (Subramanian et al., Proc. Natl. Acad. Sci. USA 102:15545-50 (2005)) was performed using Hallmark gene lists in the Molecular Signatures Database."}, "GIST-T1 cells [2]": {"test_system": "GIST-T1 cells", "experiment": "Growth over time assay in GIST-T1", "assay_type": "cell-based, human", "details": "all doses tested; day 21 cell count", "description": "Cell Culture and Virus Production. All cell lines tested negative for mycoplasma infection on routine surveillance (MilliporeSigma Cat #MP0025-1KT). Human embryonic kidney (HEK) 293 FT (Thermo Fisher Scientific Cat #R70007, RRID: CVCL_6911) and the GIST cell lines GIST-T1 (Cosmo Bio Cat #PMC-GIST01-COS, RRID: CVCL_4976; KIT mutation in exon 11 Δ560-578), GIST430 (RRID: CVCL_7040; KIT mutation in exon 11 Δ560-576), GIST48B (RRID: CVCL_M441: KIT-independent), and GIST882 (RRID: CVCL_7044: KIT mutation in exon 13 K642E) were cultured in Dulbecco's modified Eagle's medium containing 10% FBS, 2 mM L-glutamine, […], and […]. KIT rescue cell lines, which are independent of the KIT enhancer, were generated as previously described (Hemming et al., Cancer Research 79:994-1009 (2019)). Non-commercial cell lines were obtained from the laboratory of Jonathan Fletcher between 2014 and 2016. KIT exons were sequenced to confirm the expected coding mutations and cell identity of GIST cell lines, and cells were thawed from original or derived stocks and used in the described experiments within approximately 3 months. Transfections were performed with X-tremeGene (Roche, Cat #6365809001). Lentiviral production was performed as previously described (Hemming et al., PLOS Biol. 6: e2571-15 (2008)). […]"}, "[3]": {"test_system": "GIST-T1 cell line xenografts", "experiment": "GIST-T1 cell line xenograft, tumor volume", "assay_type": "in vivo, mice", "details": "for tumor volume relative to baseline: WM-1119 50 mg/kg gavage 3 times daily, one value per animal 1-6", "description": "Xenograft Models. The PG27 patient derived xenograft was obtained from a patient undergoing clinically indicated surgery and following written informed consent to a Dana-Farber Cancer Institute IRB-approved research protocol. Cryopreserved tumor or the GIST-T1 cell line mixed 1:1 with matrigel were implanted subcutaneously into 6-week-old female nude mice (NU/NU; Charles River Laboratories). GIST-T1 tested negative for mycoplasma and rodent pathogens (Charles River Laboratories). For in vivo assessment of CRISPR/Cas9)-modified cell line growth. GIST-T1/Cas9 cells were treated with the indicated sgRNAs and selected with puromycin in vitro for 14 days prior to bilateral flank implantation. For drug treatment studies, singly engrafted mice were enrolled into treatment groups when tumors reached approximately 100-200 mm^3 in size, as measured by calipers and determined by the tumor volume equation: […]. […] WM-1119 (50 mg/kg gavage 3 times daily. 7 days per week). VTP-50469 (0.1% in chow) or combination treatments. […] Tumors were dissected and fixed in 10% formalin for corollary studies including H&E staining and immunohistochemistry of sectioned tumors. 4 μm sections were cut from fixed and embedded tumors and stained with Ki-67 (1:400, Cell Signaling Technology Cat #9027) and cleaved caspase-3 (1:250, Cell Signaling Technology Cat #9579). Reactions were developed using DAB (Cell Signaling Technology Cat #8059) or NovaRed (Vector Laboratories Cat #SK-4800) substrate kits per manufacturer recommendations. All procedures were conducted under protocols approved by the Institutional Animal Care and Use Committee at Dana-Farber Cancer Institute."}, "GIST-T1 xenografts": {"test_system": "GIST-T1 xenografts", "experiment": "RNA-seq on GIST-T1 xenografts", "assay_type": "in vivo, mice", "details": "5 and 10 days of treatment", "protocol": "as §1, with “Database. Xenograft Models. […] VTP-50469 (0.1% in chow) or combination treatments.” for “Database.”"}, "GIST cells [4]": {"test_system": "GIST cells", "experiment": "Cell cycle analysis (propidium iodide, flow cytometry)", "assay_type": "cell-based, human", "details": "72 hours imatinib", "protocol": "(§2) Cell cycle and apoptosis. […] Cells were trypsinized, washed in PBS and fixed in 70% ethanol. Propidium iodide at 25 μg/mL (Life Technologies Cat #P1304MP) and RNAse A at 0.2 mg/mL (Thermo Fischer Scientific Cat #EN0531) were used to stain nuclear DNA. Analysis was performed on a Guava easyCyte Flow Cytometer (Luminex Corporation), and single cells were assessed for nuclear content using Guava InCyte software. Apoptosis and cell death were measured following 72 h of drug treatment using Guava Nexin Reagent (Luminex Corporation Cat #4500-0450) per manufacturer's recommendations. Non-apoptotic cells stain negative for Annexin V and 7-AAD, early apoptotic cells stain positive for Annexin V but negative for 7-AAD and late apoptotic and dead cells stain positive for both Annexin V and 7-AAD. Staining was assayed on a Guava easyCyte Flow Cytometer and data analyzed using Guava InCyte software."}, "GIST cells [5]": {"test_system": "GIST cells", "experiment": "Apoptosis and cell death (Annexin V / 7-AAD, Guava Nexin)", "assay_type": "cell-based, human", "details": "72-hour treatment, imatinib 0.5 μM", "protocol": "as §2, with “Apoptosis and cell death were measured following 72 h of drug treatment using Guava Nexin Reagent (Luminex Corporation Cat #4500-0450) per manufacturer's recommendations.” left out"}}, "note": "Where “and” joins values, the source holds several entries; their conditions need not be identical. Equal entries are not always repeated.", "data": [{"smiles": "CC(C)N(C[C@H]1O[C@@H](n2cnc3c(N)ncnc32)[C@H](O)[C@@H]1O)[C@H]1C[C@@H](CCc2nc3cc(C(C)(C)C)ccc3[nH]2)C1", "note": "[EPZ-5676]", "values": [{"measurement": "HAND1-regulated transcriptional programs (GSEA)", "setting": "GIST-T1 cells [1]; GIST-T1, 5 days", "result": "significant disruption"}, {"measurement": "correlation of transcriptional changes with those of VTP-50469", "setting": "GIST-T1 cells [1]; GIST-T1, 5 days, RNA-seq", "result": "highly correlated"}, {"measurement": "cellular proliferation of GIST-T1 compared to DMSO control or GIST48B", "setting": "GIST-T1 cells [2]", "result": "significantly reduced cellular proliferation"}]}, {"smiles": "O=C(NNS(=O)(=O)c1ccccc1F)c1cc(F)cc(-c2ccccn2)c1", "note": "[WM-1119, 2-fluoro-N′-(3-fluoro-5-(pyridin-2-yl)benzoyl)benzenesulfonohydrazide]", "values": [{"measurement": "expression of GIST TFs", "setting": "GIST-T1 cells [1]; GIST-T1, 5 days", "result": "greatest global reduction in TF expression"}, {"measurement": "global gene expression change (RNA-seq) versus DMSO", "setting": "GIST-T1 cells [1]; GIST-T1 treated 1 and 5 days", "result": "modestly altered expression of numerous genes"}, {"measurement": "tumor volume relative to baseline", "setting": "[3]; treatment day 1 (baseline)", "result": 100}, {"measurement": "tumor volume relative to baseline", "setting": "[3]; treatment day 5, 50 mg/kg", "result": "175 and 211 and 114 and 133 and 87 and 152"}, {"measurement": "tumor volume relative to baseline", "setting": "[3]; treatment day 8, 50 mg/kg", "result": "480 and 322 and 157 and 173 and 131 and 206"}, {"measurement": "tumor volume relative to baseline", "setting": "[3]; treatment day 12, 50 mg/kg", "result": "518 and 368 and 287 and 160 and 145 and 260"}, {"measurement": "tumor volume relative to baseline", "setting": "[3]; treatment day 14, 50 mg/kg", "result": "527 and 429 and 327 and 181 and 163 and 328"}, {"measurement": "tumor volume relative to baseline", "setting": "[3]; treatment day 19, 50 mg/kg", "result": "876 and 501 and 511 and 180 and 268 and 277"}, {"measurement": "tumor volume relative to baseline", "setting": "[3]; treatment day 22, 50 mg/kg", "result": "878 and 409 and 489 and 150 and 205 and 361"}, {"measurement": "tumor volume relative to baseline", "setting": "[3]; treatment day 27, 50 mg/kg", "result": "856 and 525 and 558 and 202 and 232 and 317"}, {"measurement": "tumor volume relative to baseline", "setting": "[3]; treatment day 29, 50 mg/kg", "result": "874 and 532 and 648 and 199 and 221 and 353"}, {"measurement": "tumor growth compared to vehicle", "setting": "[3]; end of 28-day treatment period", "result": "significant reductions in tumor growth"}]}, {"smiles": "Cc1ccc(NC(=O)c2ccc(CN3CCN(C)CC3)cc2)cc1Nc1nccc(-c2cccnc2)n1", "note": "[imatinib]", "values": [{"measurement": "KIT signaling-dependent transcripts TMEM100 and SPRY2 in xenografts", "setting": "GIST-T1 xenografts", "result": "preferentially reduced"}, {"measurement": "expression of genes regulated by HAND1 in xenografts", "setting": "GIST-T1 xenografts", "result": "decrease in the expression of genes regulated by HAND1"}, {"measurement": "cell cycle effect", "setting": "GIST cells [4]", "result": "G0/G1 cell cycle arrest"}, {"measurement": "apoptosis and cell death versus DMSO", "setting": "GIST cells [5]", "result": "significant increase in early and late-phase apoptosis and cell death"}]}]}
